Measured values from PubChem BioAssay AID1918954 (Molecular Pharmacology Branch, DTP, NCI, 2023).

System: MDA-MB-468 complex spheroids with HUVEC/MSC, viability
Assay: Anticancer human tumor MDA-MB-468 cell line growth inhibition;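 further: spheroids exposed to agents for seven days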;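 on viability, T/C: 100% = DMSO vehicle control viability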
Conditions: for IC50: curve of first compound; for viability, T/C: stronger effect = lower value
Description: Multicellular complex tumor spheroid response to LSD1 Inhibitor Iadademstat in combination with a variety of drugs and investigational agents in selected tumor cell lines
The current study was undertaken to assess response to LSD1 inhibitors in combination with standard-of-care drugs and investigational agents in solid tumor complex spheroid models as well as in the K-562 leukemia. Complex spheroids include a stromal component modeled by human endothelial cells (HUVEC) and fibroblasts modeled by human mesenchymal stem cells (MSCs). The concentration ranges selected for each drug and investigational agent were based upon clinically achievable concentrations if the clinical Cmax of the agent was known.
Compounds. The drugs and investigational agents used in this study are listed on Table 1. All of the agents used, including staurosporine (NSC755774) and gemcitabine (NSC613327), were obtained from the Developmental Therapeutics Program, NCI. FDA-approved anticancer drugs are available from the NCI at http://dtp.nci.nih.gov/branches/dscb/oncology_drugset_explanation.html. Drugs and investigational agents were >95% pure by proton nuclear magnetic resonance (NMR) and liquid chromatography/mass spectrometry (LC/MS). Stock solutions were prepared at 400x in DMSO, stored at -70 degrees C, and diluted in fresh medium prior to their use. The final concentration of DMSO in cell culture wells never exceeded 0.25% (v/v). The FDA-approved anticancer drug set is available from the Developmental Therapeutics Program at https://dtp.cancer.gov/organization/dscb/obtaining/available_plates.htm. All drugs and investigational agents were tested over a range starting from a high concentration at or near the clinical Cmax and decreasing in half-log increments. If the clinical Cmax for an agent had not been determined, the highest concentration tested was 10 microM.
Cell Lines. The patient-derived cancer cell (PDC) lines: 292921-168-R-J2-PDC, K24384-001-R-PDC, and 521955-158-R2-J5-PDC pancreatic carcinomas, 556581-035-R-J1 ovarian carcinoma, 324938-238-R-J1-PDC, 855422-203-R-J1-PDC and 883617-216-R-J1-PDC urothelial bladder carcinomas, 743489-274-T-PDC renal cell carcinoma, 138582-R-J1 Merkel cell tumor, K60290-347-R-J1 and K57222-313-R-J1-PDC glioblastomas, 653999-131-R-J2-PDC, LG0703-F948-PDC, and 349418-098-R-PDC non-small cell lung carcinomas, 885512-296-R-J2-PDC, 171881-019-R-J1-PDC breast carcinomas and 186277-243-T-J2-PDC and 233499-124-R-J2-PDC colon carcinomas were obtained from the NCI Patient-Derived Models Repository (PDMR, https://pdmr.cancer.gov). The established cell lines NCI/ADR-RES (RRID:CVCL_14520 and OVCAR-5 (RRID:CVCL_1628) ovarian carcinomas, 786-O (RRID:CVCL_1051) and A498 (RRID:CVCL_A498) renal cell carcinoma, NCI-H211 (ATCC, cat. CRL-5824; RRID:CVCL_1529), NCI-H196 (ATCC, cat. CRL-5823, RRID:CVCL_1509), SW 1271 (ATCC, cat. CRL-2177, RRID:CVCL_1716) and NCI-H1876 (ATCC, cat. CRL-5902, RRID:CVCL_1503) small cell lung carcinomas, MDA-MB-231 (RRID:CVCL_0062) and MDA-MB-468 (RRID:CVCL_0419)breast carcinomas (10-12). Pooled donor human umbilical vein endothelial cells (HUVEC, Lonza, cat. CC-2519) and human mesenchymal stem cells (hMSC, Lonza, cat. PT-2501) were purchased from Lonza (Walkersville, MD).
Cell Culture. All cells were maintained in an incubator at 37 degrees C and 5% CO2 with 95% humidity. The PDC lines were cultured according to standard operating procedures established by the NCI PDMR (https://pdmr.cancer.gov). Briefly all PDCs were thawed and cultured in Matrigel-coated flasks prepared with a working solution of 1X Ham's F-12 nutrient mix, without supplementation (Invitrogen, Waltham, MA, cat. 11765054), 100 U/mL penicillin-streptomycin (Invitrogen, cat. 15140122), and 2.5% Matrigel (Corning Inc., Corning, NY, cat. 354248) for the first three passages. […]

Work on CC[C@@]1(O)C(=O)OCc2c1cc1n(c2=O)Cc2cc3c(CN(C)C)c(O)ccc3nc2-1 + NC1CC1c1ccc(-c2cccc(O)c2)cc1 yielded an IC50 (second compound 0.1 µM) of 1.32 nM, an IC50 (second compound 0.316 µM) of 1.2 nM and an IC50 (second compound 1 µM) of 1.15 nM. It also gave an IC50 (second compound 3.16 µM) of 1.05 nM, an IC50 (second compound 10 µM) of 0.731 nM and a viability, T/C (second compound 0.1 µM, first compound 0.000316 µM) of 95.6%. For the same compound, the viability, T/C (second compound 0.1 µM, first compound 0.001 µM) was 61.8%, the viability, T/C (second compound 0.1 µM, first compound 0.00316 µM) was 12.6% and the viability, T/C (second compound 0.1 µM, first compound 0.01 µM) was 7.83%. For the same compound, the viability, T/C (second compound 0.1 µM, first compound 0.0316 µM) was 4.57%, the viability, T/C (second compound 0.1 µM, first compound 0.1 µM) was 4.01% and the viability, T/C (second compound 0.316 µM, first compound 0.000316 µM) was 97.4%. For the same compound, the viability, T/C (second compound 0.316 µM, first compound 0.001 µM) was 57.1%, the viability, T/C (second compound 0.316 µM, first compound 0.00316 µM) was 12.2% and the viability, T/C (second compound 0.316 µM, first compound 0.01 µM) was 7.26%. For the same compound, the viability, T/C (second compound 0.316 µM, first compound 0.0316 µM) was 4.33%, the viability, T/C (second compound 0.316 µM, first compound 0.1 µM) was 3.89% and the viability, T/C (second compound 1 µM, first compound 0.000316 µM) was 90.9%. The viability, T/C (second compound 1 µM, first compound 0.001 µM) was 55.3%, the viability, T/C (second compound 1 µM, first compound 0.00316 µM) was 12.1% and the viability, T/C (second compound 1 µM, first compound 0.01 µM) was 7.25%. It also gave a viability, T/C (second compound 1 µM, first compound 0.0316 µM) of 4.02%, a viability, T/C (second compound 1 µM, first compound 0.1 µM) of 3.43% and a viability, T/C (second compound 3.16 µM, first compound 0.000316 µM) of 98%. It also gave a viability, T/C (second compound 3.16 µM, first compound 0.001 µM) of 51.8%, a viability, T/C (second compound 3.16 µM, first compound 0.00316 µM) of 12.3% and a viability, T/C (second compound 3.16 µM, first compound 0.01 µM) of 6.86%. For the same compound, the viability, T/C (second compound 3.16 µM, first compound 0.0316 µM) was 3.9%, the viability, T/C (second compound 3.16 µM, first compound 0.1 µM) was 2.97% and the viability, T/C (second compound 10 µM, first compound 0.000316 µM) was 67.6%. For the same compound, the viability, T/C (second compound 10 µM, first compound 0.001 µM) was 43.5%, the viability, T/C (second compound 10 µM, first compound 0.00316 µM) was 13.9% and the viability, T/C (second compound 10 µM, first compound 0.01 µM) was 7.24%. It also gave a viability, T/C (second compound 10 µM, first compound 0.0316 µM) of 4.44% and a viability, T/C (second compound 10 µM, first compound 0.1 µM) of 3.53%.

With Nc1ccn(C2OC(CO)C(O)C2(F)F)c(=O)n1 (stereo not given) + NC1CC1c1ccc(-c2cccc(O)c2)cc1 the IC50 (second compound 0.1 µM) was < 0.949 nM, the IC50 (second compound 0.316 µM) was < 0.949 nM and the IC50 (second compound 1 µM) was < 0.949 nM. The IC50 (second compound 3.16 µM) was < 0.949 nM, the IC50 (second compound 10 µM) was < 0.949 nM and the viability, T/C (second compound 0.1 µM, first compound 0.000949 µM) was 33.8%. For the same compound, the viability, T/C (second compound 0.1 µM, first compound 0.003 µM) was 14.3%, the viability, T/C (second compound 0.1 µM, first compound 0.00949 µM) was 4.63% and the viability, T/C (second compound 0.1 µM, first compound 0.03 µM) was 3.79%. It also gave a viability, T/C (second compound 0.1 µM, first compound 0.0949 µM) of 3.9%, a viability, T/C (second compound 0.1 µM, first compound 0.3 µM) of 3.38% and a viability, T/C (second compound 0.316 µM, first compound 0.000949 µM) of 34.3%. For the same compound, the viability, T/C (second compound 0.316 µM, first compound 0.003 µM) was 14.2%, the viability, T/C (second compound 0.316 µM, first compound 0.00949 µM) was 4.2% and the viability, T/C (second compound 0.316 µM, first compound 0.03 µM) was 3.68%. The viability, T/C (second compound 0.316 µM, first compound 0.0949 µM) was 3.51%, the viability, T/C (second compound 0.316 µM, first compound 0.3 µM) was 3.68% and the viability, T/C (second compound 1 µM, first compound 0.000949 µM) was 32.4%. For the same compound, the viability, T/C (second compound 1 µM, first compound 0.003 µM) was 12.8%, the viability, T/C (second compound 1 µM, first compound 0.00949 µM) was 4.05% and the viability, T/C (second compound 1 µM, first compound 0.03 µM) was 3.61%. The viability, T/C (second compound 1 µM, first compound 0.0949 µM) was 3.27%, the viability, T/C (second compound 1 µM, first compound 0.3 µM) was 3.33% and the viability, T/C (second compound 3.16 µM, first compound 0.000949 µM) was 28.3%. For the same compound, the viability, T/C (second compound 3.16 µM, first compound 0.003 µM) was 11.9%, the viability, T/C (second compound 3.16 µM, first compound 0.00949 µM) was 4.05% and the viability, T/C (second compound 3.16 µM, first compound 0.03 µM) was 3.61%. It also gave a viability, T/C (second compound 3.16 µM, first compound 0.0949 µM) of 3.53%, a viability, T/C (second compound 3.16 µM, first compound 0.3 µM) of 3.69% and a viability, T/C (second compound 10 µM, first compound 0.000949 µM) of 24.4%. The viability, T/C (second compound 10 µM, first compound 0.003 µM) was 12.5%, the viability, T/C (second compound 10 µM, first compound 0.00949 µM) was 4.33% and the viability, T/C (second compound 10 µM, first compound 0.03 µM) was 3.84%. For the same compound, the viability, T/C (second compound 10 µM, first compound 0.0949 µM) was 3.5% and the viability, T/C (second compound 10 µM, first compound 0.3 µM) was 3.65%.
